Reference: patent publication US20230028441A1, “NOVEL HETEROARYL-TRIAZOLE COMPOUNDS AS PESTICIDES” (Bayer Aktiengesellschaft, priority 2019, published 2023)
Where two headings read alike, the source gives them in different places.

Legend:
Format in all cases: in vivo
[1] = tested on: cattle tick larvae (Rhipicephalus microplus), strain Parkhurst, resistant against synthetic pyrethroids; test: Rhipicephalus (Boophilus) microplus in-vitro contact test, larval cattle tick; conditions: read-out: efficacy (larvae dead or moribund)
Procedure, shortened: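 Efficacy, 100% meaning all larvae dead or moribund, was judged at 48 h from loss of negative geotactic climbing. Larvae of the Parkhurst strain, 20–50 per tube, were exposed at 27° C and 85% humidity to acetone-coated tube surfaces; 900 ppm corresponded to 5 μg/cm^2.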

[2] = tested on: larvae of the banded cucumber beetle (Diabrotica balteata); test: Diabrotica balteata spray test; conditions: 168 h, read-out: efficacy (seedlings grown up)
Procedure, shortened: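 Efficacy (%) read at day 7: 100% means seedlings grew like untreated, uninfested controls; 0% means no seedlings grew. Wheat seeds germinated 1 day on agar, sprayed with emulsified compound solution (1000 ppm emulsifier in water), then each well infested with 10-20 larvae.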

[3] = tested on: adult brown dog ticks (Rhipicephalus sanguineus); test: Rhipicephalus sanguineus in-vitro contact test with adult brown dog ticks; conditions: after 48 hours, read-out: efficacy (ticks dead or moribund); for pest or weed control at 1 µg/cm2, 100 g/ha: 1 μg/cm^2 (=100 g/ha); for pest or weed control at 5 µg/cm2, 500 g/ha: 5 μg/cm^2 (=500 g/ha)
Procedure, shortened: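 Efficacy is the percentage of adult ticks dead or moribund, meaning immotile or uncoordinated and unable to escape 45-50° C. heat within 5 min. Read 48 h after 5-10 ticks were enclosed at room temperature in acetone-coated glass tubes. Dose 5 μg/cm^2, from a 900 ppm coating solution.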

[4] = tested on: adult engorged female ticks (Rhipicephalus microplus); test: Rhipicephalus (Boophilus) microplus injection test; conditions: 168 h, read-out: efficacy (infertile eggs)
Procedure, shortened: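 Efficacy is the share of infertile eggs: 100% means none are fertile, 0% means all are fertile. Egg deposition was checked 7 days after injecting 1 μL of DMSO-diluted compound into the abdomen of five engorged female R. microplus, with doubtful eggs kept about 42 days to hatching. The stock was 10 mg in 0.5 mL DMSO.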

[5] = tested on: green peach aphid (Myzus persicae); test: Myzus persicae oral test; conditions: 120 h
Procedure, shortened: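 Aphids of mixed population ingest the compound preparation by sucking through a parafilm sheet stretched over wells holding test solution plus IPL41 insect medium (33%+15% sugar). Kill rate in percent is determined five days later.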

[6] = tested on: caterpillars of the fall army worm (Spodoptera frugiperda); test: Spodoptera frugiperda spray test (cotton leaves); conditions: 168 h
Description: Solvent: 14 parts by weight of dimethylformamide
Emulsifier: alkylaryl polyglycol ether
(§1) To produce a suitable preparation of active compound, 1 part by weight of active compound is mixed with the stated amount of solvent and is diluted with water, containing an emulsifier concentration of 1000 ppm, to the desired concentration. Further test concentrations are prepared by dilution with emulsifier containing water. Ammonium salt and/or penetration enhancer in a dosage of 1000 ppm are added to the desired concentration if necessary.
Cotton leaves (Gossypium hirsutum) are treated by being sprayed with the preparation of the active compound of the desired concentration and are infested with caterpillars of the fall army worm (Spodoptera frugiperda).
After 7 days mortality in % is determined. 100% means all the caterpillars have been killed and 0% means none of the caterpillars have been killed.

[7] = tested on: fall armyworm larvae (Spodoptera frugiperda); test: Spodoptera frugiperda spray test (maize leaf sections); conditions: 168 h
Procedure, shortened: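 Percent kill of Spodoptera frugiperda larvae was recorded 7 days after infesting dried, treated maize leaf sections. Spray solutions were made from an acetone/DMF compound preparation diluted with 1000 ppm emulsifier-containing water.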

[8] = tested on: adult unfed cat fleas (Ctenocephalides felis); test: Ctenocephalides felis oral test; conditions: 48 h
Procedure, shortened: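 Percent flea mortality recorded at 2 days. Compound was dissolved in dimethyl sulfoxide and diluted into cattle blood, which ~20 unfed adult cat fleas ingested through parafilm from a 37°C-heated chamber, their own chamber kept at room temperature.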

[9] = tested on: larvae of the southern green stink bug (Nezara viridula); test: Nezara viridula spray test; conditions: in Hordeum vulgare, 96 h
Procedure, shortened: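 Percent mortality of southern green stink bug larvae read 4 days after spraying infested Hordeum vulgare. Test solutions: compound in acetone plus dimethylformamide, diluted with emulsifier-containing water (1000 ppm alkylarylpolyglycol ether).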

[10] = tested on: adult cat fleas (Ctenocephalides felis); test: Ctenocephalides felis in-vitro contact test, adult cat flea; conditions: 5 μg/cm^2 (=500 g/ha), after 48 hours, read-out: efficacy (fleas dead or moribund)
Description: 9 mg compound is solved in 1 mL acetone and diluted with acetone to the desired concentration. 250 μL of the test solution is filled in 25 mL glass test tubes and homogeneously distributed on the inner walls by rotation and tilting on a shaking device (2 h at 30 rpm). With a compound concentration of 900 ppm, an inner surface of 44.7 cm^2 and a homogeneous distribution, a dose of 5 μg/cm^2 is achieved.
After the solvent has evaporated, each test tube is filled with 5-10 adult cat fleas (Ctenocephalides felis), closed with a perforated lid and incubated in a lying position at room temperature and relative humidity. After 48 hours efficacy is determined. The fleas are patted on the ground of the tubes and are incubated on a heating plate at 45-50° C. for at most 5 minutes. Immotile or uncoordinated moving fleas, which are not able to escape the heat by climbing upwards, are marked as dead or moribund.
An efficacy of 100% means all fleas are dead or moribund; 0% means no fleas are dead or moribund.

[11] = tested on: brown planthopper (Nilaparvata lugens); test: Nilaparvata lugens spray test; conditions: in Oryza sativa, 96 h
Procedure, shortened: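 Rice plants (Oryza sativa) sprayed with compound in acetone/DMF diluted in water containing 1000 ppm alkylarylpolyglycol ether emulsifier, then infested with planthoppers. Mortality % scored after 4 days (100% = all killed, 0% = none killed).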

[12] = tested on: green peach aphid (Myzus persicae); test: Myzus persicae spray test; conditions: foliar, 120 h, 100 g/ha, after 5 days, Chinese cabbage leaf disks
Description: Solvent: 78.0 parts by weight acetone • 1.5 parts by weight dimethylformamide
Emulsifier: alkylarylpolyglycol ether
as §1, with “solvents” for “solvent”, “water.” for “water. Ammonium salt and/or penetration enhancer in a dosage of 1000 ppm are added to the desired concentration if necessary.”
Chinese cabbage (Brassica pekinensis) leaf disks infected with all instars of the green peach aphid (Myzus persicae), are sprayed with a preparation of the active ingredient of the desired concentration.
After 5 days mortality in % is determined. 100% means all aphids have been killed and 0% means none of the aphids have been killed.

[13] = 5 μg/cm^2 (=500 g/ha), after 48 hours
[14] = 100 g/ha (=32 μg/well), after 7 days, wheat seeds
[15] = 500 g/ha (=160 μg/well), after 7 days, wheat seeds
[16] = 4 μg/animal, egg deposition after 7 days
[17] = 20 μg/animal, egg deposition after 7 days
[18] = 100 ppm in cattle blood, after 2 days

SMILES | pest or weed control at 1 µg/cm2, 100 g/ha [3] [%] | pest or weed control at 5 µg/cm2, 500 g/ha [3] [%] | mortality at 4 ppm [5] [%] | mortality at 20 ppm [6] [%] | mortality at 100 g/ha [7] [%] | mortality at 500 g/ha [7] [%] | pest or weed control at 5 µg/cm2 [1, 13] [%] | pest or weed control at 32 µg/disc, 100 g/ha [2, 14] [%] | pest or weed control at 0.004 mg [4, 16] [%] | pest or weed control at 0.02 mg [4, 17] [%] | mortality at 500 g/ha [9] [%] | mortality at 100 ppm [8, 18] [%] | also measured
COC(=O)Nc1nc(C(C)NC(=O)c2cc(Cl)cc(C(F)(F)F)c2)n(-c2ccc(Cl)cn2)n1 (racemic) [I-010, methyl N-[1-(5-chloro-2-pyridyl)-5-[1-[[3-chloro-5-(trifluoromethyl)benzoyl]amino]ethyl]-1,2,4-triazol-3-yl]carbamate] | 100 | 100 | 90 | 80 | 100 | 100 |  |  |  |  |  |  | pest or weed control at 5 µg/cm2 ([1]; 48 h): 100%; pest or weed control at 32 µg/disc, 100 g/ha [2]: 100%; pest or weed control at 160 µg/disc, 500 g/ha [2]: 100%; pest or weed control at 0.004 mg [4]: 100%; pest or weed control at 0.02 mg [4]: 100%; mortality at 100 ppm [8]: 100%
CC(=O)Nc1nc(C(C)NC(=O)c2cc(Cl)cc(C(F)(F)F)c2)n(-c2ccc(Cl)cn2)n1 (racemic) [I-011, N-[1-[5-acetamido-2-(5-chloro-2-pyridyl)-1,2,4-triazol-3-yl]ethyl]-3-chloro-5-(trifluoromethyl)benzamide] |  | 80 | 100 | 100 | 100 | 100 | 100 | 100 | 100 | 100 | 90 | 100 | pest or weed control at 160 µg/disc, 500 g/ha [2, 15]: 100%
CC(NC(=O)c1cc(Cl)cc(C(F)(F)F)c1)c1nc(NC(=O)C2CC2)nn1-c1ccc(Cl)cn1 (stereo not shown) [I-015] |  |  |  | 100 | 100 | 100 |  |  | 100 | 100 |  | 100 | 
CC(NC(=O)c1cc(Cl)cc(C(F)(F)F)c1)c1nc(NC(=O)C2CC2(F)F)nn1-c1ccc(Cl)cn1 (stereo not shown) [I-018] |  |  |  | 100 |  |  | 100 | 100 | 100 | 100 |  | 100 | pest or weed control at 160 µg/disc, 500 g/ha [2, 15]: 100%; pest or weed control at 5 µg/cm2 [10]: 100%
CC(NC(=O)c1cc(Cl)cc(C(F)(F)F)c1)c1nc(CS(C)(=O)=O)nn1-c1ccc(Cl)cn1 (stereo not shown) [I-029] |  |  |  | 100 | 100 | 100 |  |  | 100 | 100 |  | 100 | 
CC(NC(=O)c1cc(Cl)cc(C(F)(F)F)c1)c1nc(S(C)(=O)=O)nn1-c1ccc(Cl)cn1 (stereo not shown) [I-063] |  |  | 100 | 100 | 100 | 100 |  | 100 | 100 | 100 | 100 |  | pest or weed control at 160 µg/disc, 500 g/ha [2, 15]: 100%
CC(NC(=O)c1cc(Br)cc(Br)c1)c1nc(N)nn1-c1ccc(C#N)cn1 (stereo not shown) [I-114] |  |  | 90 | 100 | 100 |  | 100 | 100 |  |  |  |  | 
CC(NC(=O)c1cc(Br)cc(C(F)(F)F)c1)c1nc(N)nn1-c1ccc(C#N)cn1 (stereo not shown) [I-117] |  |  | 100 | 100 | 100 |  | 100 | 100 | 100 |  | 100 | 100 | 
CNc1nc([C@H](C)NC(=O)c2cc(C(F)(F)F)cc(C(F)(F)F)c2)n(-c2ncccn2)n1 [I-127, N-[(1S)-1-[5-(methylamino)-2-pyrimidin-2-yl-1,2,4-triazol-3-yl]ethyl]-3,5-bis(trifluoromethyl)benzamide] | 100 | 100 |  |  | 100 |  | 100 | 100 |  |  | 100 |  | pest or weed control at 5 µg/cm2 [10]: 100%; mortality at 500 g/ha [11]: 90%; mortality at 100 g/ha [12]: 90%
C[C@H](NC(=O)c1cc(C(F)(F)F)cc(C(F)(F)F)c1)c1nc(N)nn1-c1ncccn1 [I-134, N-[(1S)-1-(5-amino-2-pyrimidin-2-yl-1,2,4-triazol-3-yl)ethyl]-3,5-bis(trifluoromethyl) benzamide] | 100 | 100 |  |  | 100 |  | 100 | 100 |  |  | 100 |  | pest or weed control at 5 µg/cm2 [10]: 100%; mortality at 500 g/ha [11]: 100%; mortality at 100 g/ha [12]: 100%
CNc1nc([C@H](C)NC(=O)c2cc(Br)cc(C(F)(F)F)c2)n(-c2ncccn2)n1 [I-136] | 100 | 100 |  | 100 | 100 |  | 100 | 100 |  |  | 90 |  | mortality at 500 g/ha [11]: 100%
CNc1nc([C@H](C)NC(=O)c2cc(Br)cc(OC(F)(F)F)c2)n(-c2ccc(C#N)cn2)n1 [I-142] |  |  |  | 100 | 100 |  |  | 100 |  |  | 100 |  | 
CNc1nc([C@H](C)NC(=O)c2cc(Br)cc(Br)c2)n(-c2ccc(C#N)cn2)n1 [I-143] |  |  |  | 100 | 100 |  |  | 100 |  |  | 100 |  | 
